Reference: patent US20170370933A1, “METHODS AND COMPOSITIONS FOR IMMUNOMODULATION” (Nodality, Inc., priority 2013, published 2017)
Entries after “also recorded” stand apart in the source; their conditions may differ.

Experiments:
breast cancer patients = experiment: clinical study NCT01401062, Fresolimumab with radiotherapy in breast cancer: PBMC IMR expression, signaling, response; format: in vivo, human
Method: (§1) PBMC samples were collected from 7 healthy donors and 15 breast cancer patients enrolled in a clinical study NCT01401062, evaluating Fresolimumab (anti-TGF □) at 1 or 10 mg/kg IV in combination with radiotherapy (RT). Samples were cryopreserved then prepped and analyzed. Breast cancer donor samples were pre- and post-treatment. Basal expression of immunomodulatory receptors (IMRs) and short term signaling in response to modulation were profiled. Signaling following exposure to in vitro chemotherapeutic agents was also examined. Response to therapy in this trial was poor and therefore associations with clinical reponse was observational only.
Analysis of IMR expression and SCNP (modulated and unmodulated) was performed as detailed in previous Examples and in the specification.

TGFb modulated signaling = experiment: in vitro Fresolimumab on TGFb modulated signaling in breast cancer samples; format: cell-based, human
Method: (§2) In this Example, samples of peripheral blood mononuclear cells (PBMCs) from breast cancer patients and from healthy donors were analyzed for IMR expression and by single cell network profiling, both modulated and unmodulated. Samples were taken before and after treatment in the breast cancer patients. IMR expression was profiled and correlated with immune signaling; differences in immune signaling by SCNP in pre- and post-treatment samples was investigated; the in vitro effects of immune checkpoint inhibitors on signaling in pre- and post-treatment samples was investigated; and the in vitro effects of Fresolimumab on TGFb modulated signaling in pre-treatment samples was profiled.

[1] = system: p-STAT1, p-STAT3, p-STAT5 in whole blood cell subsets; experiment: SCNP of cytokine-induced JAK/STAT signaling in whole blood of healthy donors; format: cell-based, human
Method: Method: Whole blood from 11 healthy donors (20-65 yrs, 7 males, 4 females, 8 Caucasians, 2 Hispanics, 1 East Asian) was stimulated at 37° C. in 96-well plates with a low, medium, and high dose of GM-CSF, IFN-α, IL-27 and IL-6, each added separately, as described in Example 5. For each dose, a stimulation time course was run with 6 time points between 3 and 45 minutes. […] The SCNP assay was performed using a fluorophore-labeled antibody cocktail to simultaneously measure signaling in six distinct cell populations, including: neutrophils, CD20+ B cells, CD3+CD4+ T cells, CD3+CD4− T cells (CD8 enriched), CD3−CD20− lymphocytes (NK cell enriched), and CD14+ monocytes. The median fluorescent intensity of phospho (p)-STAT1(Y701), p-STAT3(Y705), and p-STAT5(Y694) were measured in each defined cell population for each experimental condition.
Kinetic response to varying concentrations of modulators was investigated in normal samples (i.e. samples from persons who have no diagnosis of disease). 11 normal samples were donated with informed consent by Nodality Inc. employees and processed at Nodality Inc. in South San Francisco, Calif. The samples were treated with 4 different modulators (GM-CSF, IL-27, IFNa and IL-6) at 4 different concentrations of the modulator and activation levels of pStat1, pStat3 and pStat5 were measured at different time points. Activation levels were measured at 3, 5, 10, 15, 30 and 45 minutes using flow cytometry-based single cell network profiling. The concentrations of the stimulators are tabulated below:
Activation levels of different cell surface markers were also profiled using single cell network profiling and used in conjunction with gating to segregate the cells into discrete cell populations. In the gating analysis, SSC-A and FSC-A were first used to segregate lymphocytes from non-lymphocytes. CD14 and CD4 were then used to segregate the non-lymphocytes into populations of neutrophils and CD14+ cells (monocytes). CD3 and CD20 were then used to segregate the lymphocytes into populations of CD20+(B Cells), CD3+(T Cells) and CD20-CD3-cells. CD4 was used to segregate the CD3+ T cells into populations of CD3+CD4- and CD3+CD4+ T cells.

[2] = system: p-Stat1, p-Stat3, p-Stat4, p-Stat5, p-Stat6, p-p38 in PBMC subsets; experiment: SCNP of IFN-α signaling in PBMC from healthy donors; format: cell-based, human
Method: Methods: IFN-α-mediated signaling responses were measured by SCNP in PBMC samples from 12 healthy donors. PBMCs were processed for flow cytometry by fixation and permeabilization followed by incubation with fluorochrome-conjugated antibodies that recognize extracellular lineage markers and intracellular signaling molecules. The levels of several phospho-proteins (p-Stat1, p-Stat3, p-Stat4, p-Stat5, p-Stat6, and p-p38) were measured in multiple cell populations (CD14+ monocytes, CD20+ B cells, CD4+CD3+ T cells, and CD4−CD3+ T cells) at 15 minutes, 1, 2 and 4 hours post IFN-α exposure as described in Example 6.

[3] = system: TCR→p-ERK/p-AKT in T cells; experiment: in vitro Keytruda effect on TCR signaling in PBMC of breast cancer patients and healthy donors; format: cell-based, human
Method: as §2
as §1, with “Signaling following exposure to in vitro chemotherapeutic agents was also examined. Response to therapy in this trial was poor and therefore associations with clinical reponse was observational only.” left out
In addition, T cell receptor (TCR) signaling was studied using SCNP. The TCR was stimulated, as described elsewhere herein, and downstream readouts, in particular, p-ERK and p-AKT, p-PLCg2, p-CD3z, p-s6, and IkB were measured.

metastatic melanoma = conditions: ipilimumab alone compared to gp100 vaccine alone; previously treated metastatic melanoma; p=0.003; cited from earlier work
[4] = system: immune signaling pathways in PBMC subsets; experiment: SCNP of PBMC from melanoma patients pre- and post-ipilimumab treatment; format: in vivo, human; conditions: for IL-15→p-STAT5 signaling in post-treatment samples: CD4− T cells, vs healthy and untreated donor samples
Method: Methods: 3 healthy and 13 melanoma patient cryopreserved samples, including 7 collected pre-treatment, and 6 collected post-treatment, were analyzed by SCNP. […] Cells were assessed for viability, cell subset frequencies and signaling in response to different modulators. A node is defined as combination of modulator and intracellular readout (e.g. IL-6→p-STAT3). Cytokine and TCR- or Fc[…]R-induced activation of STAT1, 3, 5, CD3 □ and Erk was evaluated in multiple immune cell populations and comparisons made based on disease, treatment time point and clinical responses.

[5] = system: CTLA-4 interaction with CD80/86 in T cells; experiment: in vitro T cell activation on αCD3-coated plate with ipilimumab, 48 hr; format: cell-based; conditions: PBMCs on αCD3-coated plate, vs isotype control
Method: In this example, PBMCs were added to a αCD3-coated plate to induce T cell activation, then ipilimumab was added to block CTLA-4 interaction with CD80/86. Isotype control was added to a reference well. The cells were incubated at 37° C. for 48 hr, then fixed, permeabilized, stained, and data acquired as described in the Examples above. Cells were gated by CD3, CD4, and CD8, and the readouts were IL-2, TNF-α, Cyclin A2, and CTLA-4. Ipilimumab augmented CTLA-4 upregulation, cytokine production, and proliferation.

[6] = IL-6 stimulation, CD4+ T cells and monocytes, whole blood

## Fresolimumab: anti-TGF, a TGFb inhibitor
Breast cancer patients; Fresolimumab in combination with radiotherapy
  response to therapy: poor
Breast cancer patients; breast cancer patients' PBMC
  PD-L1 expression in NK cells over the course of treatment: trend was observed toward increasing PD-L1 expression
  TIM-3 expression in monocytes with treatment: decrease in TIM-3 expression
Breast cancer patients; higher dose (1 or 10 mg/kg IV) of Fresolimumab, patient PBMC
  IMR expression patterns by dose: trend toward higher IMR expression patterns
Breast cancer patients; higher dose of Fresolimumab, patient PBMC
  TCR mediated signaling by dose: trend toward reduced TCR mediated signaling
TGFb modulated signaling
  in vitro Fresolimumab activity: weak

## GM-CSF: cytokine modulator
[1]; monocytes, neutrophils maintained persistent p-STAT5
  GM-CSF→p-STAT5 signal termination: efficient signal termination in monocytes

## IFN-α
[1]; IFN-α stimulation, all cell subsets
  time of peak activation of all 3 STAT proteins: 10 min
[1]; IFN-α, signal sustained in all other subsets
  signaling resolution in monocytes: almost complete at 45 minutes
[2]; PBMC subsets
  activation of p-Stat4: detected in T cell subsets (both CD4+ and CD4− T cells), but not in monocytes or B cells
[2]; majority of cell types, PBMC
  time of peak response for activation of p-Stat4, p-Stat6, p-p38: 1 h
[2]; most cell types, PBMC
  time of peak response for activation of p-Stat1, p-Stat3, p-Stat5: 15 min

## IL-6: cytokine modulator
[1]; IL-6, monocytes (CD4+ T cells sustained)
  time at which signal resolution fell to baseline levels: 45 min
[1]; [6]
  time of peak p-STAT1 and p-STAT5: 10 to 15 min
  time of peak p-STAT3 levels: 3 min
[1]; compared to CD4+ T cells and monocytes
  IL-6 induced activation in neutrophils: very low
[1]; whole blood, six cell populations
  cell subsets showing induced signaling: only observed in CD4+ T cells and monocytes

## Keytruda: checkpoint blockade agent that reduces communication through the PD-1 pathway
[3]; PD-1 negative (low PD-1 expression)
  effect on TCR signaling (p-ERK and p-AKT readouts): no effect
[3]; PD-1 positive (high expression) T cells
  effect on TCR signaling (p-ERK and p-AKT readouts): clear trend toward an increase in signaling; also recorded: increased TCR→AKT and p-ERK

## ipilimumab: fully human monoclonal antibody that blocks cytotoxic T-lymphocyte-associated antigen 4 (CTLA-4)-mediated T-cell suppression
Metastatic melanoma
  hazard ratio for death: 0.66
[4]
  IL-15→p-STAT5 signaling in post-treatment samples: diminished
[4]; listed as Ipilimumab
  IL-15→p-STAT5 signaling in post-treatment samples: reduced IL-15→p-STAT5 signaling
[4]; CD45RA+ but not CD45RA− CD4+ and CD4− subsets, vs healthy donors and pre-treatment melanoma samples
  TCR→p-Erk, TCR→p-CD3z signaling in post-treatment samples: diminished
[5]
  CTLA-4 upregulation: augmented
  cytokine production (IL-2, TNF-α): augmented
  proliferation (Cyclin A2): augmented
